Source: patent US6664368B1, “Inhibition of nuclear import by backbone cyclic peptide analogs” (priority 1997, dated 2003)
Numbered stars: 1 amine (or outer) side, 2 acyl side, 3 side chain; on linkers, the order of the positions; unused ones are H or OH. Bridge positions count the residues as written; N and C are the ends. Square brackets hold non-standard residues; d marks the D form. Ends that are not written are not given here. Peptide text beside a SMILES is read from it. N(6-aminohexyl)Gly = O=C(CN(CCCCCCN[*:3])[*:1])[*:2]; X1 = CC(C)[C@H](NC(=O)CCCCC(=O)[*:1])C(=O)[*:2]

Columns and labels:
Hut 78 cells = details: 0.1, 1, 10 and 100 μg/ml; 1, 2, 4 and 7 days post seeding
Protocol: Method: Hut 78 cells (0.5×10^6/ml) were cultured without or with 0.1, 1, 10 and 100 μg/ml of BCvir. The number of living cells was determined by staining with trypan blue 1, 2, 4 and 7 days post seeding,.

trypsin = assay: Stability to proteolytic cleavage by trypsin; type: in vitro ADME; details: trypsin solution; room temperature, TEA buffer pH 7.8, HPLC peak area; read-out: half life (t½) of digestion by trypsin (converted)
Protocol: Method: A mixture containing 0.05 ml of trypsin solution (8% w/v in HCl 0.001M), 0.5 ml TEA buffer pH=7.8 (Geiger, R.; Fritz, H. In Methods of enzymatic analysis; H. U. Bergmeyer, et al. Eds.; Weinheim: Verlag-chemie: 1984; pp 119-129) and 0.2 ml of peptide 22 (BCvir) solution in water (initial concentration of 1.25 mg/ml) was injected to HPLC (C3 column, gradient of 5-60% acetonitrile:TDW containing 0.1% TFA, 35 minutes) immediately after addition of the peptide (t=0). The mixture was incubated at room temperature and samples were injected every 70 min. […] The peak area of the peptide at each time interval was compared to the peak area of the peptide in t=0, as a measure of the relative peptide concentration.

[1] = system: nuclear import of SV40-NLS-BSA (biotinylated BSA-NLS); assay: Quantitative ELISA-based nuclear import assay, inhibition of NLS-BSA (SV40-NLS-BSA) uptake in permeabilized Colo-205 cells; type: cell-based; set-up: key to Nuclear uptake of SV40-BSA: +: most of the cells in the field (more than 70-80%) did show nuclear uptake (presence of fluorescent dye within the nuclei); −: most of the cells in the field (more than 70-80%) did show nuclear uptake (their cytoplasm, and not the nuclei, were fluorescently labeled); details: for Nuclear uptake of SV40-BSA: in the presence of the free peptide, ELISA-based assay; for Nuclear entry (%) of SV40-NLS-BSA: WGA 0.6 mg/ml or Tat-NLS peptide 1 mg/ml preincubated 30 minutes, entry with cytosolic factors = 100%
Protocol: (§1) Nuclear import was quantitatively determined essentially as described before (Melchior, et al. (1993) J. Cell. Biol. 123 (6). 1649-1659), except that a suspension of Colo-205 cells was used instead of a suspension of HeLa cells and 500 nM biotinylated BSA-NLS were used as a transport substrate. The immunomodule strips were coated with rabbit anti-BSA serum instead of using the IgG fraction. The results given are an average of triplicate determination whose standard deviation never exceeded ±20%.
Nuclear uptake was determined by the ELISA-based assay, except where indicated. IC50 values were determined by using peptides and transport substrates in molar ratios between 500:1 and 0.005:1 respectively. Cysteine residues in all the peptides are not part of the original sequence and were added in order to conjugate them to BSA.
Inhibition of nuclear uptake was estimated by addition of the above listed peptides to a nuclear transport system using SV40-NLS-BSA as a transport substrate.
(§2) Nuclear transport using SV40-NLS-BSA and Tat-NLS-BSA as transport substrates was performed employing the in-vitro ELISA system.

[2] = system: nuclear import of Tat-NLS-BSA; assay: In-vitro ELISA nuclear transport with Tat-NLS-BSA as transport substrate; type: cell-based, human; details: WGA 0.6 mg/ml or Tat-NLS peptide 1 mg/ml preincubated 30 minutes; entry with cytosolic factors = 100%
Protocol: as §1
The entry of the conjugates into nuclei of permeabilized colo cells was estimated as described above. ATP was depleted, WGA (0.6 mg/ml) and Tat-NLS peptide (1 mg/ml) were preincubated for 30 minutes at room temperature with the permeabilized cells before adding the BSA conjugates.
as §2

[3] = system: nuclear import of VprN/VprC-BSA conjugate in permeabilized cells; assay: Nuclear import of Vpr peptide-BSA conjugates in permeabilized cells; type: cell-based
Description: Viral protein r (Vpr), an HIV-1 auxiliary protein which mediates nuclear import of the viral preintegration complex (PIC), contains two regions, N- and C-terminal, which have been proposed to function as a nuclear localization signal (NLS). We have synthesized peptides corresponding to both regions (designated as VprN and VprC), conjugated them to bovine serum albumin (BSA), and tested their ability to mediate nuclear import in permeabilized cells.

[4] = system: translocation of FL-NLS-BSA into nuclei of digitonin-permeabilized HeLa cells; assay: Nuclear import estimated by fluorescence microscopy; type: cell-based; set-up: key: +: most of the cells in the field (more than 70-80%) did show nuclear uptake (presence of fluorescent dye within the nuclei); −: most of the cells in the field (more than 70-80%) did show nuclear uptake (their cytoplasm, and not the nuclei, were fluorescently labeled); details: in the presence of the free peptide; based on fluorescent microscopy observations (footnote 3)
Description: HeLa cells were cultivated on 10 mm coverslips to subconfluent density and then permeabilized with digitonin as described before (Broder, et al. ibid). Linear peptides bearing the NLS signal of the SV40 large T-antigen were covalently attached to fluorescently labeled (with FITC) BSA molecules (Goldfarb, et al. (1986) Nature 322, 641-644) and translocation of the resulting fluorescently labeled-NLS-BSA molecules (FL-NLS-BSA) into nuclei of digitonin-permeabilized HeLa cells was followed by fluorescent microscopy observations, as described (Broder, et al. ibid).

[5] = SV40-NLS-BSA substrate, peptide:substrate molar ratios between 500:1 and 0.005:1
[6] = purified peptides, inhibition of nuclear import of NLS-BSA

Row | Compound | Nuclear uptake of SV40-BSA [1] | IC50 [1, 5] | further results
1 | CC(C)C[C@H](NC(=O)[C@H](CCCCN)NC(=O)CN1CCCCCCNC(=O)[C@H](C(C)C)NC(=O)CCCCC(=O)N[C@@H](CCCCN)C(=O)N[C@@H](CCCCN)C(=O)N[C@@H](CCCCN)C1=O)C(N)=O [BCvir] (KKK[N(6-aminohexyl)Gly]KL-NH2; linker N-4 via X1) |  |  | effect on growth rate of uninfected cells (Hut 78 cells): did not affect the growth rate; half-life (trypsin): 7 h
2 | NCCCC[C@H](NC(=O)CN1CCCCCCNC(=O)CNC(=O)CCCCC(=O)N[C@@H](CCCCN)C(=O)N[C@@H](CCCCN)C(=O)N[C@@H](CCCCN)C1=O)C(N)=O [peptide 19.4] |  |  | half-life (trypsin): 9 h
3 | CGPKNKRKV [SV40 mutant] | + |  | 
4 | CVKRKKKPG (Human Immunodeficiency Virus (HIV-1)) [SV40 reverse] | + |  | 
5 | C^7KRSMGGWSAIRERMRR^22 [Nef NLS] | − | 11 µM | 
6 | C^35RQARRNRRRRWRERQRQ^51 (N-terminal cysteine; UniProt P04618 35-51, looked up, fragment) [Rev NLS] | − | 347 µM | 
7 | C^48GRKKRRQRRRAHQN^61 (N-terminal cysteine; UniProt P04608 48-61, looked up, fragment) [Tat NLS] | − | 147 µM | Nuclear entry (%) of Tat-NLS-BSA [2]: 15.4%; Nuclear entry (%) of SV40-NLS-BSA [1]: 52%
8 | C^88EWRKKRYSTOV^98 [Vif 88-98 K91L] (CEWRLKRYSTQV; not fully specified; printed as C^88EWRKKRYSTOV^98 [Vif 88-98 K91L]) | + |  | 
9 | C^88EWRKKRYSTOV^98 [Vif 88-98] (CEWRKKRYSTQV; not fully specified; printed as C^88EWRKKRYSTOV^98 [Vif 88-98]; UniProt P69723 88-98, looked up, fragment) | − | 62 µM | 
10 | GKKKYKLKHC [HIV-MA NLS] |  |  | IC50 [1, 6]: 12 µM
11 | PKKKRKVC [SV40 large T-antigen NLS] | − | 0.02 µM | IC50 [1, 6]: 0.001 µM; inhibition of nuclear import of the VprN conjugate [3]: not inhibited
12 | ^30YVSGKARGWFYRHHY^44 [Vif 30-44] |  |  | Nuclear uptake of SV40-BSA [4]: +
13 | ^41RHHYESPHPRISSEV^55 [Vif 41-55] |  |  | Nuclear uptake of SV40-BSA [4]: +
14 | ^51ISSEVHIPLGDARLV^65 [Vif 51-65] |  |  | Nuclear uptake of SV40-BSA [4]: +
15 | ^78DWHLGQGV^85 (Human Immunodeficiency Virus (HIV-1)) [Vif 78-85] |  |  | Nuclear uptake of SV40-BSA [4]: +
16 | ^85VSIEWRKK^92 (UniProt P69723 85-92, looked up, fragment) [Vif 85-92] | − | 253 µM | 
17 | ^88EWRKKRYS^95 (Human Immunodeficiency Virus (HIV-1)) [Vif 88-95] | − |  | 
18 | wheat germ agglutinin [WGA] |  |  | Nuclear entry (%) of Tat-NLS-BSA [2]: 53.6%; Nuclear entry (%) of SV40-NLS-BSA [1]: 49.8%; inhibition of nuclear import of the VprN conjugate [3]: inhibited
